Experimental data as given in US20240269238A1, “Therapeutic Regimens and Methods for Reducing Body Weight in a Subject with Fatty Liver Disease using a GLP-1R and GCGR Agonist” (Spitfire Pharma LLC, priority 2022, published 2024).

Columns and labels:
[1] = Phase 1 12-week NAFLD study (Example 1): body weight loss; format: in vivo, human; settings: for weight loss: week 12; for placebo-adjusted weight loss: 12 weeks
Excerpt: (§1) Provided herein is disclosure of a Phase 1, multicenter, randomized, double-blind, placebo-controlled study to assess the effects of Pemvidutide (also termed herein as ALT-801), the safety of Pemvidutide and effects on hepatic fat fraction, anthropometric parameters, lipid metabolism, inflammatory markers and fibrosis markers in diabetic and non-diabetic (type 2 diabetes) overweight and obese (BMI 28.0 kg/m^2) subjects with NAFLD. This study was designed to assess changes in hepatic fat fraction by MRI-PDFF (magnetic resonance imaging-proton density fat fraction) in diabetic and non-diabetic overweight and obese subjects with NAFLD after 12 weeks of ALT-801 treatment. The trial was conducted without adjunctive diet and exercise interventions. The study assessed changes in body weight, lipid metabolism, metabolic markers, and inflammatory markers and safety and tolerability of ALT-801 after 12 weeks of treatment. Subjects were stratified for the presence or absence of diabetes at baseline. Fibroscan and cT1 assessments evaluated changes in liver inflammatory and fibrotic activity at the end of 12 weeks of treatment.
(§2) Overweight and obese volunteers with BMI ≥28 kg/m^2 were studied because this is the typical population of individuals with NAFLD, and these subjects are able to better tolerate the predicted Pharmacodynamics (PD) effect of weight loss and could even benefit from treatment. A hepatic fat fraction of 10% has been typical for the evaluation of hepatic fat fraction in subjects with NAFLD. In other words, individuals with a liver fat fraction of 10% or greater are typically diagnosed with NAFLD. Diabetic subjects that require insulin, sulfonylureas or DDP-4 inhibitors for control of diabetes were excluded in this study. Exclusions were instituted that might otherwise affect an accurate assessment of the effects of ALT-801 on safety or PD. The BMI upper limit is set to 45 kg/m^2 as subjects over this BMI are no likely to fit into the MRI scanner.
(§3) The study, described in this example, was carried out in 94 subjects overweight and obese (body mass index [BMI] ≥28.0 kg/m^2) Type 2 diabetic and non-diabetic subjects with nonalcoholic fatty liver disease (NAFLD) over about 4.5 months, including up to a 35-day screening period, and 85-day treatment period and a 25-day follow-up period, with treatment with ALT-801 (a composition comprising SEQ ID NO.: 1, “study medication”) or placebo administered by subcutaneous (SC) injection once weekly for up to twelve (12) doses.
(§4) The safety objective of this study was to assess the safety and tolerability of ALT-801 in 18-65 years old subjects with NAFLD (NAFLD without significant fibrosis, defined as FibroScan® controlled attenuation parameter (CAP) ≥280 dB/m and liver stiffness measurement (LSM)<10 kPa (i.e., indicating the absence of significant fibrosis), magnetic resonance imaging derived proton density fat fraction (MRI-PDFF) ≥10%), hemoglobin Alc (HbAlc) of less than 9.5%, and alanine aminotransferase (ALT) or aspartate aminotransferase (AST) values of ≤[…]. The pharmacodynamic (PD) objectives of this study were to evaluate the effects of ALT-801 on hepatic fat fraction, anthropometric parameters, lipid metabolism, metabolic markers, inflammatory markers, fibrosis markers, and lipotoxicity markers. The pharmacokinetic (PK) objectives of this study were to evaluate the effects of ALT-801 and metformin exposure (drug interactions) on the subjects (e.g., ALT-801 and metformin concentrations in blood over time).
(§5) After providing informed consent, subjects underwent a screening period of up to 35 days. Subjects were instructed on how to maintain their normal diets, alcohol consumption and physical activities and not to start any new diets, supplements, or exercise programs at any time while participating in the study. […]

[2] = test system: liver fat content; experiment: Phase 1 12-week NAFLD study (Example 1): liver fat content by MRI-PDFF; format: in vivo, human; settings: for absolute reduction in liver fat (MRI-PDFF): week 12, NAFLD; for relative reduction in liver fat (MRI-PDFF) / proportion of patients with at least 30% reduction in liver fat content / proportion of patients with at least 50% reduction in liver fat content / proportion of patients with normalization in liver fat content (equal or below 5%): week 12
Excerpt: as §1, §2, §3, §4, §5

Question: With `CC[C@H](C)[C@H](NC(=O)[C@H](Cc1ccccc1)NC(=O)[C@H](CCC(=O)O)NC(=O)[C@@H]1CCCCNC(=O)CC[C@H](NC(=O)[C@H](CC(=O)O)NC(=O)[C@H](CC(C)C)NC(=O)[C@H](Cc2ccc(O)cc2)NC(=O)[C@H](CCCCN)NC(=O)[C@H](CO)NC(=O)[C@H](Cc2ccc(O)cc2)NC(=O)[C@H](CC(=O)O)NC(=O)[C@H](CO)NC(=O)[C@@H](NC(=O)[C@H](Cc2ccccc2)NC(=O)[C@@H](NC(=O)CNC(=O)[C@H](CCC(N)=O)NC(=O)C(C)(C)NC(=O)[C@@H](N)Cc2c[nH]cn2)[C@@H](C)O)[C@H](C)O)C(=O)N[C@@H](CCCCNC(=O)C2O[C@@H](OCCCCCCCCCCCCCCCCCC(=O)O)C(O)C(O)[C@@H]2O)C(=O)N[C@@H](C)C(=O)N[C@@H](C)C(=O)N1)C(=O)N[C@@H](CCC(N)=O)C(=O)N[C@@H](Cc1c[nH]c2ccccc12)C(=O)N[C@@H](CC(C)C)C(=O)N[C@@H](CC(C)C)C(=O)N[C@@H](CCC(N)=O)C(=O)N[C@H](C(N)=O)[C@@H](C)O` (stereo partly drawn) [ALT-801, Pemvidutide] as the molecule, how does the weight loss ([1]; all subjects, 1.2 mg) read?
Answer: 3.4%

Question: And the weight loss ([1]; all subjects, 1.8 mg)?
Answer: 4.3%

Question: And the weight loss ([1]; all subjects, 2.4 mg)?
Answer: 3.7%

Question: What about the weight loss ([1]; diabetic subjects, 1.2 mg) of the same molecule?
Answer: 3.3%

Question: And the weight loss ([1]; diabetic subjects, 1.8 mg)?
Answer: 3.8%

Question: What about the weight loss ([1]; diabetic subjects, 2.4 mg) of the same molecule?
Answer: 4.4%

Question: And the placebo-adjusted weight loss ([1]; diabetic subjects)?
Answer: 4.5%

Question: What about the weight loss ([1]; non-diabetic subjects, 1.2 mg) of the same molecule?
Answer: 3.4%

Question: What about the weight loss ([1]; non-diabetic subjects, 1.8 mg) of the same molecule?
Answer: 4.9%

Question: And the weight loss ([1]; non-diabetic subjects, 2.4 mg)?
Answer: 3.5%

Question: What about the placebo-adjusted weight loss ([1]; non-diabetic subjects) of the same molecule?
Answer: 4.7%

Question: And the “absolute reduction in liver fat (MRI-PDFF)” value (“absolute reduction” for short) ([2]; 1.2 mg SC once weekly)?
Answer: 8.9%

Question: What about the “relative reduction in liver fat (MRI-PDFF)” value ([2]; 1.2 mg once weekly) of the same molecule?
Answer: 46.6%

Question: And the “proportion of patients with at least 30% reduction in liver fat content” value ([2]; 1.2 mg)?
Answer: 65 % of patients

Question: What about the “proportion of patients with at least 50% reduction in liver fat content” value ([2]; 1.2 mg) of the same molecule?
Answer: about 40 % of patients

Question: And the “proportion of patients with normalization in liver fat content (equal or below 5%)” value ([2]; 1.2 mg)?
Answer: 20 % of patients

Question: What about the “absolute reduction” value ([2]; 1.8 mg SC once weekly) of the same molecule?
Answer: 14.7%

Question: And the “relative reduction in liver fat (MRI-PDFF)” value ([2]; 1.8 mg once weekly)?
Answer: 68.5%

Question: What about the “proportion of patients with at least 30% reduction in liver fat content” value ([2]; 1.8 mg) of the same molecule?
Answer: 94.4 % of patients

Question: And the “proportion of patients with at least 50% reduction in liver fat content” value ([2]; 1.8 mg)?
Answer: 72.2 % of patients

Question: What about the “proportion of patients with normalization in liver fat content (equal or below 5%)” value ([2]; 1.8 mg) of the same molecule?
Answer: 55.6 % patients

Question: And the “absolute reduction” value ([2]; 2.4 mg SC once weekly (4-week titration))?
Answer: 11.3%

Question: And the “relative reduction in liver fat (MRI-PDFF)” value ([2]; 2.4 mg once weekly)?
Answer: 57.1%

Question: And the “proportion of patients with at least 30% reduction in liver fat content” value ([2]; 2.4 mg)?
Answer: 85 % of patients

Question: And the “proportion of patients with at least 50% reduction in liver fat content” value ([2]; 2.4 mg)?
Answer: 70%

Question: And the “proportion of patients with normalization in liver fat content (equal or below 5%)” value ([2]; 2.4 mg)?
Answer: 50.0%

Question: And the “relative reductions in liver fat (study conclusion)” value ([2]; 12 weeks)?
Answer: > 60%
